Calls of active or inactive are those of the source. The calls are words filed in the database; no cut-off is given here.
Key:
[1] = Selectivity index, ratio of CC50 for human HepG2 cells to IC50 for Dengue virus 2 infected in human HepG2 cells; format: functional
[2] = Cytotoxicity against human HepG2 cells assessed as cell viability after 72 hrs by MTT assay; format: cell-based
[3] = system: dengue virus type 2; assay: Antiviral activity against Dengue virus 2 infected in human HepG2 cells assessed as reduction in NS1 level after 72 hrs by sandwich ELISA; format: functional, organism-based; settings: HepG2, 72 h
[4] = system: dengue virus type 2; assay: Antiviral activity against Dengue virus 2 infected in human HepG2 cells assessed as reduction in NS1 level at 19.5 uM after 72 hrs by sandwich ELISA relative to control; format: functional; parameters: scale not given: the % may be the effect or the level left
[5] = system: dengue virus type 2; assay: (§1) Inhibition of Dengue virus 2 recombinant 6xHis-tagged NS2B/NS3 serine protease using Boc-Gly-Arg-Arg-AMC as substrate measured for 60 mins by fluorimetric analysis
[6] = as §1; parameters: species or system dengue virus type 2
[7] = system: dengue virus type 2; assay: Antiviral activity against Dengue virus 2 infected in human HepG2 cells assessed as reduction in NS1 level at 9.8 uM administered 1 hr postinfection measured after 72 hrs by sandwich ELISA relative to control; format: functional; parameters: scale not given: the % may be the effect or the level left
[8] = system: dengue virus type 2; assay: Antiviral activity against Dengue virus 2 infected in human HepG2 cells assessed as reduction in NS1 level at 12.5 uM administered 1 hr postinfection measured after 72 hrs by sandwich ELISA relative to control; format: functional, organism-based
[9] = system: HepG2; assay: Cytotoxicity against human HepG2 cells assessed as reduction in cell viability up to 12.5 uM after 72 hrs by MTT assay; format: cell-based; settings: hepg2, 72 h
[10] = system: dengue virus type 2; assay: Antiviral activity against Dengue virus 2 infected in human HepG2 cells assessed as reduction in NS1 level at 13.5 uM administered 1 hr postinfection measured after 72 hrs by sandwich ELISA relative to control; format: functional; parameters: scale not given: the % may be the effect or the level left
[11] = system: dengue virus type 2; assay: Antiviral activity against Dengue virus 2 infected in human HepG2 cells assessed as reduction in NS1 level at 85.7 uM administered 1 hr postinfection measured after 72 hrs by sandwich ELISA relative to control; format: functional; parameters: scale not given: the % may be the effect or the level left
[12] = system: dengue virus type 2; assay: Antiviral activity against Dengue virus 2 infected in human HepG2 cells assessed as reduction in NS1 level at 49.2 uM administered 1 hr postinfection measured after 72 hrs by sandwich ELISA relative to control; format: functional; parameters: scale not given: the % may be the effect or the level left
[13] = system: HepG2; assay: Cytotoxicity against human HepG2 cells assessed as reduction in cell viability up to 100 uM after 72 hrs by MTT assay; format: cell-based; settings: hepg2, 72 h
[14] = system: dengue virus type 2; assay: Antiviral activity against Dengue virus 2 infected in human HepG2 cells assessed as reduction in NS1 level at 100 uM administered 1 hr postinfection measured after 72 hrs by sandwich ELISA relative to control; format: functional, organism-based
[15] = system: dengue virus type 2; assay: Antiviral activity against Dengue virus 2 infected in human HepG2 cells assessed as NS1 level at < maximum non-toxic concentration after 72 hrs by sandwich ELISA (reference value: 44.5 +/- 3.2 PbU); format: functional

Compound	Ratio CC50/IC50 [1]	CC50 at 72 h [2] [µM]	IC50 [3] [µM]	inhibition [5]	IC50 [6] [µM]	further results
CC1(C)CC(=O)C2=C(C1)c1c(ccc3ccccc13)NC2c1ccc(-c2ccc(O)c(C(=O)O)c2)o1 (centres undefined)	3.9	58.6	14.9	Dose-dependent effect	17.5	Activity [4]: 69.8%; Activity [7]: 15.5%
O=c1oc2ccccc2c(O)c1C1c2ccccc2Oc2c1c(=O)oc1ccccc21 (centres undefined)				Dose-dependent effect	18.9	Activity [8]: inactive; Activity [9]: Non-toxic
COc1ccc(C(c2c(O)c3ccccc3oc2=O)c2c(O)c3ccccc3oc2=O)cc1CSc1nc2ccccc2s1	3.6	42.1	11.8	Dose-dependent effect	9.09	Activity [10]: 73.9%
COc1ccc(C(c2c(O)c3ccccc3oc2=O)c2c(O)c3ccccc3oc2=O)cc1COc1ccc(NC(C)=O)cc1	2.6	162	61.5	Dose-dependent effect	19.9	Activity [11]: 79.9%; Activity [12]: 37%
Cc1ccc2nc(-c3ccc(NC(=O)c4c(O)c5c(n(Cc6ccco6)c4=O)CCCC5)cc3)sc2c1				Dose-dependent effect	608	Activity [13]: Non-toxic; Activity [14]: inactive
NC(=O)c1ncn([C@@H]2O[C@H](CO)[C@@H](O)[C@H]2O)n1 [RIBAVIRIN]						Activity [15]: 8.3 PbU
